Experimental data published in BigSolDB 2.1.

OC(Cn1cncn1)(Cn1cncn1)c1ccc(F)cc1F
solubility (mole fraction)
Conditions	in 1,4-dioxane	in THF	in chloroform	in ethanol	in methanol	in n-butanol	in n-propanol
298.15 K	0.0124	0.0121	0.0135	0.011	0.0141	0.0058	0.0115
303.15 K	0.0165	0.0155	0.0136	0.0147	0.0193	0.0066	0.0127
308.15 K	0.0194	0.0197	0.0139	0.017	0.0286	0.008	0.0148
313.15 K	0.0219	0.0225	0.0148	0.0231	0.0422	0.0102	0.0175
318.15 K	0.0257	0.0273	0.016	0.0284	0.06	0.0132	0.021
323.15 K	0.0304	0.0331	0.0181	0.0354	0.088	0.016	0.0278
